# Laboratory results from patent publication US20200131669A1, “CYCLIC PEPTIDE COMPOUND HAVING HIGH MEMBRANE PERMEABILITY, AND LIBRARY CONTAINING SAME” (Chugai Seiyaku Kabushiki Kaisha, priority 2017, published 2020).
# Starred links: 1 amine or outer side, 2 acyl side, 3 side chain; linkers in the order of their positions; H or OH if unused. Positions of bridges follow the written chain, without caps; N, C: chain ends. Non-standard residues stand in square brackets, D forms with d. Residues, ends and D or L forms follow the SMILES beside them. ξ: configuration not given here. *: point of attachment. NMeAbu(3,3-F2-piperidino) = CN[C@@H](CCN1CCCC(F)(F)C1)C(=O)O; NMeAla(4-thiazolyl) = CN[C@@H](Cc1cscn1)C(=O)O; NMePhe(3-Cl) = CN[C@@H](Cc1cccc(Cl)c1)C(=O)O; Ethyl(2-morpholino) = C1CN(CC*)CCO1; hhPhe = N[C@@H](CCCc1ccccc1)C(=O)O; NMeF = CN[C@@H](Cc1ccccc1)C(=O)O; NMeGABA = CN(CCCC(=O)[*:2])[*:1]; NMeI = CC[C@H](C)[C@H](NC)C(=O)O; hPhe = N[C@@H](CCc1ccccc1)C(=O)O; CH2CONHtBu = CC(C)(C)NC(=O)C*; NMeL = CN[C@@H](CC(C)C)C(=O)O; dNMeL = CN[C@H](CC(C)C)C(=O)O; Propyl(2R-OH) = C[C@@H](O)C*; dNMeAbu = CC[C@@H](NC)C(=O)O; NMeV = CN[C@H](C(=O)O)C(C)C; NMeAbu = CC[C@H](NC)C(=O)O; NPentylGly = CCCCCNCC(=O)O; hSer = N[C@@H](CCO)C(=O)O; NMeA = CN[C@@H](C)C(=O)O; Piperidide = C1CCN(*)CC1; CH2CMe2OH = CC(C)(O)C*; NBuGly = CCCCNCC(=O)O; NPrGly = CCCNCC(=O)O; X11 = FC(F)C(F)(F)C*; Ethyl(2-OH) = OCC*; X2 = Fc1cncc(C*)c1; Bn = c1ccc(C*)cc1; ξS = NC(CO)C(=O)O; Sar = CNCC(=O)O; tBu = CC(C)(C)*
# Test system: Caco-2 cells
# Assay: Caco-2 membrane permeability, improved method as used in the following Examples (96-well, 20 to 24 h preincubation)
# Format: in vitro ADME
# Details: Papp, Caco-2 membrane permeability, improved method
# Summary of the method: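 Papp (cm/sec) was derived from LC/MS of basal samples collected 180 min after apical dosing in FaSSIF/HBSS pH 6.0 with 1% DMSO, against a basal HBSS pH 7.4 receiver containing 4% BSA. Three-week Caco-2 cultures were first preincubated with compound in DMEM+FaSSIF at 37 °C for 20–24 h.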
row,Structure (SMILES),Caco-2 [cm/s]
1,CCOCC[C@@H]1NC(=O)[C@H](CC(C)C)N(C)C(=O)CN(C)C(=O)[C@H]([C@@H](C)O)NC(=O)[C@H](CC(C)C)N(C)C(=O)[C@H](CC(C)C)NC(=O)[C@H](Cc2ccccc2)N(C)C(=O)[C@@H](CC(C)C)NC(=O)C[C@@H](C(=O)N2CCCCC2)NC(=O)[C@H](CC(C)C)N(C)C(=O)[C@H](Cc2ccccc2)N(C)C1=O [pd444] ([dL][NMeF]L[NMeL]T[Sar][NMeL][hSer](Et)[NMeF][NMeL]D-Piperidide; lactam N-11),1.1e-06

# Same assay, conditions: human, Caco-2, 180 min
row,Structure (SMILES),Caco-2 [cm/s]
1,CC(C)C[C@H]1C(=O)N[C@@H](COC(C)(C)C)C(=O)N(C)[C@@H](Cc2ccccc2)C(=O)N(C)[C@@H](C)C(=O)N[C@H](C(=O)N2CCCCC2)CC(=O)N[C@H](C(C)C)C(=O)N(C)[C@@H](Cc2ccccc2)C(=O)N[C@@H](CCCc2ccccc2)C(=O)N(C)[C@@H](CC(C)C)C(=O)N[C@@H]([C@@H](C)O)C(=O)N(C)CC(=O)N1C [pd363] ([dV][NMeF][hhPhe][NMeL]T[Sar][NMeL]S(tBu)[NMeF][NMeA]D-Piperidide; lactam N-11),1.1e-06
2,CCCCN1CC(=O)N(C)[C@@H](CC(C)C)C(=O)N[C@H](C(=O)N2CCCCC2)CC(=O)N(C)[C@@H](C)C(=O)N[C@@H](COC[C@@H](C)O)C(=O)N(C)[C@H](CC(C)C)C(=O)N(C)[C@@H](Cc2cccc(Cl)c2)C(=O)N[C@@H](CC(C)C)C(=O)N(C)[C@@H](Cc2ccccc2)C(=O)N(C)[C@@H]([C@@H](C)CC)C(=O)N[C@@H]([C@@H](C)O)C1=O [pd489] ([NMeA]S(Propyl(2R-OH))[dNMeL][NMePhe(3-Cl)]L[NMeF][NMeI]T[NBuGly][NMeL]D-Piperidide; lactam N-11),1.1e-06
3,CCCN1CC(=O)N(C)[C@@H](CC(C)C)C(=O)N[C@@H](CC(C)C)C(=O)N(C)[C@@H](Cc2ccccc2)C(=O)N(C)[C@@H](C)C(=O)N[C@H](C(=O)N2CCCCC2)CC(=O)N[C@H](CC(C)C)C(=O)N(C)[C@@H](Cc2ccccc2)C(=O)N[C@@H](COCC(=O)NC(C)(C)C)C(=O)N(C)[C@@H](CC(C)C)C(=O)N[C@@H]([C@@H](C)O)C1=O [pd442] ([dL][NMeF]S(CH2CONHtBu)[NMeL]T[NPrGly][NMeL]L[NMeF][NMeA]D-Piperidide; lactam N-11),1.1e-06
4,CC(C)C[C@H]1C(=O)N[C@H](C(=O)N2CCCCC2)CC(=O)N[C@H](C)C(=O)N(C)[C@@H](CC(C)C)C(=O)N[C@@H](COC(C)(C)C)C(=O)N(C)[C@@H](C)C(=O)N(C)[C@@H](CC(C)C)C(=O)N(C)[C@@H](C)C(=O)N[C@@H]([C@@H](C)O)C(=O)N(C)[C@@H](Cc2ccccc2)C(=O)N[C@@H](CCc2ccccc2)C(=O)N1C [pd309] ([dA][NMeL]S(tBu)[NMeA][NMeL][NMeA]T[NMeF][hPhe][NMeL]D-Piperidide; lactam N-11),1.1e-06
5,CCCCCN1CC(=O)N[C@@H](COC(C)(C)C)C(=O)N(C)[C@@H](Cc2ccccc2)C(=O)N(C)[C@@H](CC(C)C)C(=O)N[C@H](C(=O)N2CCCCC2)CC(=O)N[C@H](CC(C)C)C(=O)N(C)[C@@H](Cc2ccccc2)C(=O)N[C@@H]([C@@H](C)CC)C(=O)N(C)[C@@H](CC)C(=O)N[C@@H]([C@@H](C)O)C(=O)N(C)CC1=O [pd406] ([dL][NMeF]I[NMeAbu]T[Sar][NPentylGly]S(tBu)[NMeF][NMeL]D-Piperidide; lactam N-11),1.1e-06
6,CCCN1CC(=O)N(C)[C@@H](Cc2ccccc2)C(=O)N[C@@H]([C@@H](C)CC)C(=O)N(C)[C@@H](CC(C)C)C(=O)N[C@@H]([C@@H](C)O)C(=O)N(CCC)CC(=O)N(C)[C@@H](Cc2ccccc2)C(=O)N(C)[C@@H](CC(C)C)C(=O)N[C@@H](COCC(C)(C)O)C(=O)N(C)[C@@H](C(C)C)C(=O)N[C@H](C(=O)N2CCCCC2)CC1=O [pd431] ([NPrGly][NMeF]I[NMeL]T[NPrGly][NMeF][NMeL]S(CH2CMe2OH)[NMeV]D-Piperidide; lactam N-11),1.1e-06
7,CC[C@H](C)[C@H]1C(=O)N[C@@H]([C@@H](C)O)C(=O)N(C)CC(=O)N(C)[C@@H](CC(C)C)C(=O)N[C@H](C(=O)N2CCCCC2)CC(=O)N(C)[C@@H](C(C)C)C(=O)N[C@@H](COCc2cncc(F)c2)C(=O)N(C)[C@@H](CC(C)C)C(=O)N(C)[C@@H](Cc2ccccc2)C(=O)N[C@@H](CC(C)C)C(=O)N(C)[C@@H](Cc2ccccc2)C(=O)N1C [pd347] ([NMeV]S(X2)[NMeL][NMeF]L[NMeF][NMeI]T[Sar][NMeL]D-Piperidide; lactam N-11),1.1e-06
8,"CC(C)C[C@@H]1NC(=O)[C@H](CCN2CCCC(F)(F)C2)N(C)C(=O)[C@@H](C(C)C)NC(=O)C[C@@H](C(=O)N2CCCCC2)NC(=O)[C@H](C)N(C)C(=O)[C@H](Cc2cccc(Cl)c2)N(C)C(=O)[C@H](CC(C)C)NC(=O)[C@H](CC(C)C)N(C)C(=O)CN(C)C(=O)[C@H]([C@@H](C)O)NC(=O)[C@H](Cc2ccccc2)N(C)C1=O [pd389] ([dV][NMeAbu(3,3-F2-piperidino)]L[NMeF]T[Sar][NMeL]L[NMePhe(3-Cl)][NMeA]D-Piperidide; lactam N-11)",1.1e-06
9,CCCCN1CC(=O)N(C)[C@@H](CC(C)C)C(=O)N[C@H](C(=O)N2CCCCC2)CC(=O)N(C)[C@@H](CC(C)C)C(=O)N[C@@H](CC(C)C)C(=O)N(C)[C@@H](CC(C)C)C(=O)N(C)[C@@H](Cc2cscn2)C(=O)N[C@@H](CC(C)C)C(=O)N(C)[C@@H](Cc2ccccc2)C(=O)N(C)[C@@H]([C@@H](C)CC)C(=O)N[C@@H](CCC(=O)NC)C1=O [pd465] ([NMeL]L[NMeL][NMeAla(4-thiazolyl)]L[NMeF][NMeI]E(NHMe)[NBuGly][NMeL]D-Piperidide; lactam N-11),1.1e-06
10,CC(C)C[C@H]1C(=O)N[C@@H](C(C)C)C(=O)N(C)[C@@H](Cc2ccccc2)C(=O)N(C)[C@@H](Cc2ccccc2)C(=O)N[C@@H](COC(C)(C)C)C(=O)N(C)[C@@H](CC(C)C)C(=O)N[C@@H](COCCO)C(=O)N(C)[C@@H](CC(C)C)C(=O)N(C)[C@@H](CC(C)C)C(=O)N[C@H](C(=O)N2CCCCC2)CC(=O)N(C)CCCC(=O)N1C [pd498] ([NMeGABA][NMeL]V[NMeF][NMeF]S(tBu)[NMeL]S(Ethyl(2-OH))[NMeL][NMeL]D-Piperidide; lactam N-11),1.1e-06
11,CC[C@H](C)[C@H]1C(=O)N[C@@H]([C@@H](C)O)C(=O)N(C)CC(=O)N(C)[C@@H](C)C(=O)N[C@H](C(=O)N2CCCCC2)CC(=O)N(C)[C@@H](C)C(=O)N[C@@H](C(C)C)C(=O)N(C)[C@@H](CC(C)C)C(=O)N(C)[C@@H](Cc2ccccc2)C(=O)NC(COc2cccc(Cl)c2)C(=O)N(C)[C@@H](Cc2ccccc2)C(=O)N1C (stereo partly drawn) [pd186],1.8e-06
12,CC[C@H](C)[C@H]1C(=O)N[C@@H]([C@@H](C)O)C(=O)N(C)CC(=O)N(C)[C@@H](CC(C)C)C(=O)N[C@H](C(=O)N2CCCCC2)CC(=O)N(C)[C@@H](C)C(=O)N[C@@H](CC(C)C)C(=O)N(C)[C@@H](CC(C)C)C(=O)N(C)[C@@H](Cc2ccccc2)C(=O)N[C@@H](COCC(F)(F)C(F)F)C(=O)N(C)[C@@H](Cc2ccccc2)C(=O)N1C [pd348] ([NMeA]L[NMeL][NMeF]S(X11)[NMeF][NMeI]T[Sar][NMeL]D-Piperidide; lactam N-11),1.1e-06
13,CCCCN1CC(=O)N(C)[C@@H](CC(C)C)C(=O)N[C@H](C(=O)N2CCCCC2)CC(=O)N(C)[C@@H](CC)C(=O)N[C@H](CC(C)C)C(=O)N(C)[C@@H](CC(C)C)C(=O)N(C)[C@@H](Cc2ccccc2)C(=O)N[C@@H](COCCN2CCOCC2)C(=O)N(C)[C@H](CC)C(=O)N(C)[C@@H](CC(C)C)C(=O)N[C@@H]([C@@H](C)O)C1=O [pd482] ([NMeAbu][dL][NMeL][NMeF]S(Ethyl(2-morpholino))[dNMeAbu][NMeL]T[NBuGly][NMeL]D-Piperidide; lactam N-11),1.1e-06
14,CC[C@H](C)[C@@H]1NC(=O)[C@H](Cc2ccccc2)N(C)C(=O)CN(C)C(=O)C[C@@H](C(=O)N2CCCCC2)NC(=O)[C@H]([C@@H](C)CC)N(C)C(=O)C(COCc2ccccc2)NC(=O)[C@H](CC(C)C)N(C)C(=O)[C@H](Cc2ccccc2)N(C)C(=O)CN(C)C(=O)[C@H]([C@@H](C)O)NC(=O)[C@H](CC(C)C)N(C)C1=O (stereo partly drawn) [pd178] ([Sar][NMeF]I[NMeL]T[Sar][NMeF][NMeL][ξS](Bn)[NMeI]D-Piperidide; lactam N-11),2.5e-06
15,CC[C@H](C)[C@H]1C(=O)N[C@@H]([C@@H](C)O)C(=O)N(C)CC(=O)N(C)[C@@H](CC(C)C)C(=O)N[C@H](C(=O)N2CCCCC2)CC(=O)N(C)[C@@H](C)C(=O)NC(COc2cccc(Cl)c2)C(=O)N(C)[C@@H](CC(C)C)C(=O)N(C)[C@@H](Cc2ccccc2)C(=O)N[C@@H](C)C(=O)N(C)[C@@H](Cc2ccccc2)C(=O)N1C (stereo partly drawn) [pd188],1.3e-06
16,CCCCN1CC(=O)N(C)[C@@H](Cc2ccccc2)C(=O)N(C)[C@@H](CC(C)C)C(=O)N[C@@H](CC(C)C)C(=O)N(C)[C@@H](CC(C)C)C(=O)N[C@H](C(=O)N2CCCCC2)CC(=O)N(C)CC(=O)N(C)[C@@H](Cc2ccccc2)C(=O)N[C@@H](CCOCC)C(=O)N(C)[C@@H](CC(C)C)C(=O)N[C@@H]([C@@H](C)O)C1=O [pd445] ([Sar][NMeF][hSer](Et)[NMeL]T[NBuGly][NMeF][NMeL]L[NMeL]D-Piperidide; lactam N-11),1.1e-06
17,CC(C)C[C@H]1C(=O)N[C@@H](COC(C)(C)C)C(=O)N(C)[C@@H](Cc2ccccc2)C(=O)N(C)[C@@H](C(C)C)C(=O)N[C@H](C(=O)N2CCCCC2)CC(=O)N[C@H](C)C(=O)N(C)[C@@H](Cc2ccccc2)C(=O)NC(COc2cccc(Cl)c2)C(=O)N(C)[C@@H](C(C)C)C(=O)N[C@@H]([C@@H](C)O)C(=O)N(C)CC(=O)N1C (stereo partly drawn) [pd185],2.2e-06
